Source: the supplement of paper PMC10307832

Key:
Test in all cases: relative viability (nuclei count vs DMSO), 5 days (fraction); higher = more cells survive
Imatinib + Decitabine = compound: Cc1ccc(NC(=O)c2ccc(CN3CCN(C)CC3)cc2)cc1Nc1nccc(-c2cccnc2)n1 [Imatinib] + Nc1ncn([C@H]2C[C@H](O)[C@@H](CO)O2)c(=O)n1 [Decitabine] (partner 2 µM)
Method in brief: (§1)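 Cells from lung cancer lines were seeded into 1536-well plates and, one day later, dosed by pin tool. Treatments were either a single drug or a fixed dose of an anchor drug with five library-drug doses (not always all listed) in √10 steps. After 5 days, nuclei were stained in a one-step fixation (final 0.05% Triton X-100, 1% formaldehyde, 1 ug/ml Hoechst) and counted on 4× images, and relative viability is the treated-to-vehicle nuclei ratio, as the median of duplicate plates.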

Imatinib + Tozasertib = compound: Cc1ccc(NC(=O)c2ccc(CN3CCN(C)CC3)cc2)cc1Nc1nccc(-c2cccnc2)n1 [Imatinib] + Cc1cc(Nc2cc(N3CCN(C)CC3)nc(Sc3ccc(NC(=O)C4CC4)cc3)n2)n[nH]1 [Tozasertib] (partner 0.1 µM)
Method in brief: as §1

Imatinib + OSI-027 = compound: Cc1ccc(NC(=O)c2ccc(CN3CCN(C)CC3)cc2)cc1Nc1nccc(-c2cccnc2)n1 [Imatinib] + COc1cccc2cc(-c3nc([C@H]4CC[C@H](C(=O)O)CC4)n4ncnc(N)c34)[nH]c12 [OSI-027] (partner 0.5 µM)
Method in brief: as §1

Imatinib + Phenformin = compound: Cc1ccc(NC(=O)c2ccc(CN3CCN(C)CC3)cc2)cc1Nc1nccc(-c2cccnc2)n1 [Imatinib] + N=C(N)NC(=N)NCCc1ccccc1 [Phenformin] (partner 250 µM)
Method in brief: as §1

Imatinib + Olaparib = compound: Cc1ccc(NC(=O)c2ccc(CN3CCN(C)CC3)cc2)cc1Nc1nccc(-c2cccnc2)n1 [Imatinib] + O=C(c1cc(Cc2n[nH]c(=O)c3ccccc23)ccc1F)N1CCN(C(=O)C2CC2)CC1 [Olaparib] (partner 8 µM)
Method in brief: as §1

Imatinib + Luminespib = compound: Cc1ccc(NC(=O)c2ccc(CN3CCN(C)CC3)cc2)cc1Nc1nccc(-c2cccnc2)n1 [Imatinib] + CCNC(=O)c1noc(-c2cc(C(C)C)c(O)cc2O)c1-c1ccc(CN2CCOCC2)cc1 [Luminespib] (partner 0.01 µM)
Method in brief: as §1

Imatinib + Alpelisib = compound: Cc1ccc(NC(=O)c2ccc(CN3CCN(C)CC3)cc2)cc1Nc1nccc(-c2cccnc2)n1 [Imatinib] + Cc1nc(NC(=O)N2CCC[C@H]2C(N)=O)sc1-c1ccnc(C(C)(C)C(F)(F)F)c1 [Alpelisib] (partner 2 µM)
Method in brief: as §1

Imatinib + Linsitinib = compound: Cc1ccc(NC(=O)c2ccc(CN3CCN(C)CC3)cc2)cc1Nc1nccc(-c2cccnc2)n1 [Imatinib] + C[C@]1(O)C[C@@H](c2nc(-c3ccc4ccc(-c5ccccc5)nc4c3)c3c(N)nccn32)C1 [Linsitinib] (partner 1 µM)
Method in brief: as §1

Imatinib + Navitoclax = compound: Cc1ccc(NC(=O)c2ccc(CN3CCN(C)CC3)cc2)cc1Nc1nccc(-c2cccnc2)n1 [Imatinib] + CC1(C)CCC(c2ccc(Cl)cc2)=C(CN2CCN(c3ccc(C(=O)NS(=O)(=O)c4ccc(N[C@H](CCN5CCOCC5)CSc5ccccc5)c(S(=O)(=O)C(F)(F)F)c4)cc3)CC2)C1 [Navitoclax] (partner 0.5 µM)
Method in brief: as §1

Imatinib + Pictilisib = compound: Cc1ccc(NC(=O)c2ccc(CN3CCN(C)CC3)cc2)cc1Nc1nccc(-c2cccnc2)n1 [Imatinib] + CS(=O)(=O)N1CCN(Cc2cc3nc(-c4cccc5[nH]ncc45)nc(N4CCOCC4)c3s2)CC1 [Pictilisib] (partner 1 µM)
Method in brief: as §1

Imatinib + Lapatinib = compound: Cc1ccc(NC(=O)c2ccc(CN3CCN(C)CC3)cc2)cc1Nc1nccc(-c2cccnc2)n1 [Imatinib] + CS(=O)(=O)CCNCc1ccc(-c2ccc3ncnc(Nc4ccc(OCc5cccc(F)c5)c(Cl)c4)c3c2)o1 [Lapatinib] (partner 2 µM)
Method in brief: as §1

Imatinib = compound: Cc1ccc(NC(=O)c2ccc(CN3CCN(C)CC3)cc2)cc1Nc1nccc(-c2cccnc2)n1 [Imatinib]
Method in brief: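 Viability was read as treated-well nuclei divided by vehicle-well nuclei, using the median across plates. Lung cancer cell lines in 1536-well plates were kept overnight at 37 °C, pinned with five √10-spaced library-drug doses, and after 5 days were Hoechst-stained, imaged at 4× and counted in MetaXpress. Plates passed only with control CV below 25% and at least one doubling.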

Imatinib + Dasatinib = compound: Cc1ccc(NC(=O)c2ccc(CN3CCN(C)CC3)cc2)cc1Nc1nccc(-c2cccnc2)n1 [Imatinib] + Cc1nc(Nc2ncc(C(=O)Nc3c(C)cccc3Cl)s2)cc(N2CCN(CCO)CC2)n1 [Dasatinib] (partner 0.075 µM)
Method in brief: as §1

Imatinib + Foretinib = compound: Cc1ccc(NC(=O)c2ccc(CN3CCN(C)CC3)cc2)cc1Nc1nccc(-c2cccnc2)n1 [Imatinib] + COc1cc2c(Oc3ccc(NC(=O)C4(C(=O)Nc5ccc(F)cc5)CC4)cc3F)ccnc2cc1OCCCN1CCOCC1 [Foretinib] (partner 0.25 µM)
Method in brief: as §1

NCI-H522
relative viability (Imatinib + Decitabine; first compound 0.02 µM): 0.678 | relative viability (Imatinib + Decitabine; first compound 0.2 µM): 0.616 | relative viability (Imatinib + Decitabine; first compound 0.6325 µM): 0.577 | relative viability (Imatinib + Decitabine; first compound 2 µM): 0.675 | relative viability (Imatinib + Tozasertib; first compound 0.06325 µM): 0.501 | relative viability (Imatinib + Tozasertib; first compound 0.2 µM): 0.524 | relative viability (Imatinib + Tozasertib; first compound 0.6325 µM): 0.553 | relative viability (Imatinib + Tozasertib; first compound 2 µM): 0.588 | relative viability (Imatinib + OSI-027; first compound 0.02 µM): 1.34 | relative viability (Imatinib + OSI-027; first compound 0.06325 µM): 0.505 | relative viability (Imatinib + OSI-027; first compound 2 µM): 0.666 | relative viability (Imatinib + Phenformin; first compound 0.02 µM): 0.679 | relative viability (Imatinib + Phenformin; first compound 0.06325 µM): 0.554 | relative viability (Imatinib + Phenformin; first compound 0.2 µM): 0.626 | relative viability (Imatinib + Phenformin; first compound 0.6325 µM): 0.613 | relative viability (Imatinib + Olaparib; first compound 0.2 µM): 0.641 | relative viability (Imatinib + Olaparib; first compound 0.6325 µM): 0.606 | relative viability (Imatinib + Luminespib; first compound 0.02 µM): 1.11 | relative viability (Imatinib + Luminespib; first compound 0.06325 µM): 1.16 | relative viability (Imatinib + Luminespib; first compound 0.2 µM): 1.14 | relative viability (Imatinib + Luminespib; first compound 0.6325 µM): 1.15 | relative viability (Imatinib + Luminespib; first compound 2 µM): 1.11

A549
relative viability (Imatinib + Alpelisib; first compound 0.02 µM): 0.793 | relative viability (Imatinib + Alpelisib; first compound 0.06325 µM): 0.841 | relative viability (Imatinib + Alpelisib; first compound 0.6325 µM): 0.722 | relative viability (Imatinib + Alpelisib; first compound 2 µM): 0.949 | relative viability (Imatinib + Decitabine; first compound 0.02 µM): 0.287 | relative viability (Imatinib + Decitabine; first compound 0.2 µM): 0.355 | relative viability (Imatinib + Decitabine; first compound 0.6325 µM): 0.32 | relative viability (Imatinib + Decitabine; first compound 2 µM): 0.222 | relative viability (Imatinib + Linsitinib; first compound 0.02 µM): 0.673 | relative viability (Imatinib + Linsitinib; first compound 0.2 µM): 0.636 | relative viability (Imatinib + Linsitinib; first compound 0.6325 µM): 0.699 | relative viability (Imatinib + Linsitinib; first compound 2 µM): 0.753 | relative viability (Imatinib + Phenformin; first compound 0.02 µM): 0.178 | relative viability (Imatinib + Phenformin; first compound 0.2 µM): 0.154 | relative viability (Imatinib + Phenformin; first compound 0.6325 µM): 0.159 | relative viability (Imatinib + Phenformin; first compound 2 µM): 0.135 | relative viability (Imatinib + Olaparib; first compound 0.02 µM): 0.472 | relative viability (Imatinib + Olaparib; first compound 0.2 µM): 0.299 | relative viability (Imatinib + Olaparib; first compound 0.6325 µM): 0.307 | relative viability (Imatinib + Olaparib; first compound 2 µM): 0.42 | relative viability (Imatinib + Navitoclax; first compound 0.02 µM): 1.31 | relative viability (Imatinib + Navitoclax; first compound 0.06325 µM): 1.53 | relative viability (Imatinib + Navitoclax; first compound 0.2 µM): 1.55 | relative viability (Imatinib + Navitoclax; first compound 0.6325 µM): 1.18 | relative viability (Imatinib + Navitoclax; first compound 2 µM): 1.17 | relative viability (Imatinib + Pictilisib; first compound 0.02 µM): 0.729 | relative viability (Imatinib + Pictilisib; first compound 0.06325 µM): 0.703 | relative viability (Imatinib + Pictilisib; first compound 0.2 µM): 0.545 | relative viability (Imatinib + Pictilisib; first compound 0.6325 µM): 0.553 | relative viability (Imatinib + Pictilisib; first compound 2 µM): 0.466 | relative viability (Imatinib + Lapatinib; first compound 0.02 µM): 1.09 | relative viability (Imatinib + Lapatinib; first compound 0.06325 µM): 1.13 | relative viability (Imatinib + Lapatinib; first compound 0.2 µM): 1.11 | relative viability (Imatinib + Lapatinib; first compound 0.6325 µM): 1.07 | relative viability (Imatinib + Lapatinib; first compound 2 µM): 0.99 | relative viability (Imatinib; 0.02 µM): 1 | relative viability (Imatinib; 0.06325 µM): 0.846 | relative viability (Imatinib; 0.2 µM): 1.19 | relative viability (Imatinib; 0.6325 µM): 0.973 | relative viability (Imatinib; 2 µM): 0.99

NCI-H1623
relative viability (Imatinib + Dasatinib; first compound 0.02 µM): 0.552 | relative viability (Imatinib + Dasatinib; first compound 0.06325 µM): 0.539 | relative viability (Imatinib + Dasatinib; first compound 0.2 µM): 0.482 | relative viability (Imatinib + Dasatinib; first compound 0.6325 µM): 0.537 | relative viability (Imatinib + Dasatinib; first compound 2 µM): 0.538 | relative viability (Imatinib + Tozasertib; first compound 0.02 µM): 0.435 | relative viability (Imatinib + Tozasertib; first compound 0.06325 µM): 0.488 | relative viability (Imatinib + Tozasertib; first compound 0.2 µM): 0.401 | relative viability (Imatinib + Tozasertib; first compound 0.6325 µM): 0.451 | relative viability (Imatinib + Tozasertib; first compound 2 µM): 0.416 | relative viability (Imatinib + OSI-027; first compound 0.02 µM): 0.453 | relative viability (Imatinib + OSI-027; first compound 0.06325 µM): 0.453 | relative viability (Imatinib + OSI-027; first compound 0.2 µM): 0.386 | relative viability (Imatinib + OSI-027; first compound 0.6325 µM): 0.431 | relative viability (Imatinib + OSI-027; first compound 2 µM): 0.417 | relative viability (Imatinib + Phenformin; first compound 0.02 µM): 0.623 | relative viability (Imatinib + Phenformin; first compound 0.06325 µM): 0.601 | relative viability (Imatinib + Phenformin; first compound 0.2 µM): 0.535 | relative viability (Imatinib + Phenformin; first compound 0.6325 µM): 0.573 | relative viability (Imatinib + Phenformin; first compound 2 µM): 0.571 | relative viability (Imatinib + Foretinib; first compound 0.02 µM): 0.872 | relative viability (Imatinib + Foretinib; first compound 0.06325 µM): 0.811 | relative viability (Imatinib + Foretinib; first compound 0.2 µM): 0.749 | relative viability (Imatinib + Foretinib; first compound 0.6325 µM): 0.788 | relative viability (Imatinib + Foretinib; first compound 2 µM): 0.894 | relative viability (Imatinib + Luminespib; first compound 0.02 µM): 0.509 | relative viability (Imatinib + Luminespib; first compound 0.06325 µM): 0.522 | relative viability (Imatinib + Luminespib; first compound 0.2 µM): 0.489 | relative viability (Imatinib + Luminespib; first compound 0.6325 µM): 0.569 | relative viability (Imatinib + Luminespib; first compound 2 µM): 0.467 | relative viability (Imatinib; 0.02 µM): 0.97 | relative viability (Imatinib; 0.06325 µM): 0.763 | relative viability (Imatinib; 0.2 µM): 0.814 | relative viability (Imatinib; 0.6325 µM): 0.956 | relative viability (Imatinib; 2 µM): 0.947
